Where two headings read alike, the source gives them in different places. *1 amine or outer side, *2 acyl side, *3 side chain or, on linkers, in order; H or OH if unused. Where a SMILES comes first, the peptide text is derived from it. Bridges are numbered along the chain shown (N, C = ends). Roman numbers before positions name the chains, in order. [ ]: non-standard residue; d: D form. 1Nal = N[C@@H](Cc1cccc2ccccc12)C(=O)O; Diglycolyl = O=C(COCC(=O)[*:2])[*:1]; NMeR = CN[C@@H](CCCNC(=N)N)C(=O)O; Tic = O=C(O)[C@@H]1Cc2ccccc2CN1; X1 = O=C(c1ccccc1C[*:2])[*:1]; Pen = CC(C)(S)[C@H](N)C(=O)O
Molecular target: T1, rh integrin α4β7 (Homo sapiens, UniProt P13612+P26010)
T1 construct: purchased R&D Systems 5397-A30
T1 sequence (P13612 34-977 limits assumed): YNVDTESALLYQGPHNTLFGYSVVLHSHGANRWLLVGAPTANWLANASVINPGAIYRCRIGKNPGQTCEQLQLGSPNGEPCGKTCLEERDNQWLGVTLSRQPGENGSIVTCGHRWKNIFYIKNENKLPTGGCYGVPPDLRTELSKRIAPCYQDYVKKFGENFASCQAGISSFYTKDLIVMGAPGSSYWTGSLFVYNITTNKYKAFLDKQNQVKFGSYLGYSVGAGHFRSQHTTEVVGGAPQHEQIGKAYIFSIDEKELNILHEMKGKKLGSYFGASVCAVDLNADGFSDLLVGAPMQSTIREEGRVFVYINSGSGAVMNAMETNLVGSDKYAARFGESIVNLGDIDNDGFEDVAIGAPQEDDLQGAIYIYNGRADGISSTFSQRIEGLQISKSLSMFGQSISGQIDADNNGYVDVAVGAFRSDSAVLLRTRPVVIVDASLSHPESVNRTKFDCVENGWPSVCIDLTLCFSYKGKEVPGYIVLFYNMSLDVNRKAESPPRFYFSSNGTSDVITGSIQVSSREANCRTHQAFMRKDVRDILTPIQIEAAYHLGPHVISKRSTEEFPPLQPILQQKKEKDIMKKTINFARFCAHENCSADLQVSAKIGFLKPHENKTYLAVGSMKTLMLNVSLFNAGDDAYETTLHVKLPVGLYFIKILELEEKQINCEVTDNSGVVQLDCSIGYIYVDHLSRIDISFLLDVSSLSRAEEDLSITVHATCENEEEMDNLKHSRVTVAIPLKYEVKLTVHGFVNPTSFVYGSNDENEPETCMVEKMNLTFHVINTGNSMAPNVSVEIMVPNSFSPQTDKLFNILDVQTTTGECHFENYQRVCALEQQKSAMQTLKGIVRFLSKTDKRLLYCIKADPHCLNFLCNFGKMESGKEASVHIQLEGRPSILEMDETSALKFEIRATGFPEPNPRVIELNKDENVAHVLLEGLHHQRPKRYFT
T1 sequence (P26010 20-723 limits assumed): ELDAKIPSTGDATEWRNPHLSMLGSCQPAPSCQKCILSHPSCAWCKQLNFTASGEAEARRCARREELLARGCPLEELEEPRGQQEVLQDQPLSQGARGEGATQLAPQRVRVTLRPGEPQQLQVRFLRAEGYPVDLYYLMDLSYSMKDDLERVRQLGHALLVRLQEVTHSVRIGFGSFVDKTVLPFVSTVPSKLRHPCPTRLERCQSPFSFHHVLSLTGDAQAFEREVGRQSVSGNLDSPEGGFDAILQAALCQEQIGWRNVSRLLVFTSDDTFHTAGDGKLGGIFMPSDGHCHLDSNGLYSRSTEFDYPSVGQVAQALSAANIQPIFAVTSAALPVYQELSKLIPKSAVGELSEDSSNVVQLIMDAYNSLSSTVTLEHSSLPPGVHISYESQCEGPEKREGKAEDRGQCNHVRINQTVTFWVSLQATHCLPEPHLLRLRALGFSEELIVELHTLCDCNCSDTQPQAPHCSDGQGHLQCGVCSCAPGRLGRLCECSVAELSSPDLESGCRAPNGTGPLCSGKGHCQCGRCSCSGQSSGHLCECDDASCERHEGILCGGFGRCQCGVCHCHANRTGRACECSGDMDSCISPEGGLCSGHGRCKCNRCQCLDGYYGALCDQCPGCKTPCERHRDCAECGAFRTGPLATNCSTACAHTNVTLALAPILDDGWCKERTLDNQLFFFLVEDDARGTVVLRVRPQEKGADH
Assay: α4β7-MAdCAM Competition ELISA
Format: binding
Conditions: read-out: ELISA A4B7
In short: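 Recombinant human α4β7 captured on nickel-coated plates, then incubated 1 h at room temperature with serially diluted peptides (final top 10 μM) and 10 nM final MAdCAM-1 in Tris pH 7.6 buffer with 1 mM MnCl2 or MgCl2. Bound MAdCAM-1 detected with anti-human IgG1-HRP and TMB, absorbance at 450 nm.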

[1] = thioether peptide dimers, Table 7
[2] = thioether monomer peptides, Table 6

SMILES	IC50 [1] [nM]	IC50 [2] [nM]
CC(C)C[C@@H]1NC(=O)[C@H]([C@@H](C)O)NC(=O)[C@H](CC(=O)O)NC(=O)[C@H](CO)NC(=O)[C@H](CCCNC(=N)N)N(C)C(=O)c2ccccc2CSC(C)(C)[C@@H](C(=O)N[C@@H](Cc2c[nH]c3ccccc23)C(=O)N[C@H](CCC(=O)O)C(=O)N[C@H](CCCCNC(=O)COCC(=O)NCCCC[C@@H](NC(=O)[C@@H](CCC(=O)O)NC(=O)[C@H](Cc2c[nH]c3ccccc23)NC(=O)[C@H]2NC(=O)[C@H](CC(C)C)NC(=O)[C@H]([C@@H](C)O)NC(=O)[C@H](CC(=O)O)NC(=O)[C@H](CO)NC(=O)[C@H](CCCNC(=N)N)N(C)C(=O)c3ccccc3CSC2(C)C)C(=O)O)C(=O)O)NC1=O [compound 209] (I: [NMeR]SDTL[Pen]W[dE][dK]-OH / II: [NMeR]SDTL[Pen]W[dE][dK]-OH; linker I:9-II:9 via Diglycolyl; linker I:N-I:6, II:N-II:6 via X1)	< 25	–
CC(C)C[C@@H]1NC(=O)[C@H]([C@@H](C)O)NC(=O)[C@H](CC(=O)O)NC(=O)[C@H](CO)NC(=O)[C@H](CCCNC(=N)N)N(C)C(=O)c2ccccc2CSC(C)(C)[C@@H](C(=O)N[C@@H](Cc2c[nH]c3ccccc23)C(=O)N[C@H](CCC(=O)O)C(=O)N[C@@H](CO)C(N)=O)NC1=O [compound 100] (HELM PEPTIDE1{[meR].S.D.T.L.[Pen].W.[dE].S.[am]}|CHEM1{[O=C(c1ccccc1C[*:2])[*:1]]}$PEPTIDE1,CHEM1,1:R1-1:R1|PEPTIDE1,CHEM1,6:R3-1:R2$$$V2.0)	–	< 25
CC(C)C[C@@H]1NC(=O)[C@H]([C@@H](C)O)NC(=O)[C@H](CC(=O)O)NC(=O)[C@H](CO)NC(=O)[C@H](CCCNC(=N)N)N(C)C(=O)c2ccccc2CSC(C)(C)[C@@H](C(=O)N[C@@H](Cc2cccc3ccccc23)C(=O)N[C@H](CCC(=O)O)C(=O)N(C)[C@@H](CCCCN)C(N)=O)NC1=O [compound 69] (HELM PEPTIDE1{[meR].S.D.T.L.[Pen].[O=C([C@H](Cc1cccc2ccccc12)N[*:1])[*:2]].[dE].[meK].[am]}|CHEM1{[O=C(c1ccccc1C[*:2])[*:1]]}$PEPTIDE1,CHEM1,1:R1-1:R1|PEPTIDE1,CHEM1,6:R3-1:R2$$$V2.0)	–	< 25
CC(C)C[C@@H]1NC(=O)[C@H]([C@@H](C)O)NC(=O)[C@H](CC(=O)O)NC(=O)[C@H](CO)NC(=O)[C@H](CCCNC(=N)N)N(C)C(=O)c2ccccc2CSC(C)(C)[C@@H](C(=O)N[C@@H](Cc2c[nH]c3ccccc23)C(=O)N[C@H](CCC(=O)O)C(=O)N[C@@H](Cc2c[nH]cn2)C(N)=O)NC1=O [compound 102] (HELM PEPTIDE1{[meR].S.D.T.L.[Pen].W.[dE].H.[am]}|CHEM1{[O=C(c1ccccc1C[*:2])[*:1]]}$PEPTIDE1,CHEM1,1:R1-1:R1|PEPTIDE1,CHEM1,6:R3-1:R2$$$V2.0)	–	< 25
CC(C)C[C@@H]1NC(=O)[C@H]([C@@H](C)O)NC(=O)[C@H](CC(=O)O)NC(=O)[C@H](CO)NC(=O)[C@H](CCCNC(=N)N)N(C)C(=O)c2ccccc2CSC(C)(C)[C@@H](C(=O)N[C@@H](Cc2cccc3ccccc23)C(=O)N[C@H](CCC(=O)O)C(=O)N[C@H](CCCCNC(=O)COCC(=O)NCCCC[C@@H](NC(=O)[C@@H](CCC(=O)O)NC(=O)[C@H](Cc2cccc3ccccc23)NC(=O)[C@H]2NC(=O)[C@H](CC(C)C)NC(=O)[C@H]([C@@H](C)O)NC(=O)[C@H](CC(=O)O)NC(=O)[C@H](CO)NC(=O)[C@H](CCCNC(=N)N)N(C)C(=O)c3ccccc3CSC2(C)C)C(N)=O)C(N)=O)NC1=O [compound 158] (I: [NMeR]SDTL[Pen][1Nal][dE][dK]-NH2 / II: [NMeR]SDTL[Pen][1Nal][dE][dK]-NH2; linker I:9-II:9 via Diglycolyl; linker I:N-I:6, II:N-II:6 via X1)	< 25	–
CC(C)C[C@@H]1NC(=O)[C@H]([C@@H](C)O)NC(=O)[C@H](CC(=O)O)NC(=O)[C@H](CO)NC(=O)[C@H](CCCNC(=N)N)N(C)C(=O)c2ccccc2CSC(C)(C)[C@@H](C(=O)N[C@@H](Cc2c[nH]c3ccccc23)C(=O)N[C@@H](CCC(=O)O)C(=O)N[C@@H](CCN)C(N)=O)NC1=O [compound 93] (HELM PEPTIDE1{[meR].S.D.T.L.[Pen].W.E.[Dab].[am]}|CHEM1{[O=C(c1ccccc1C[*:2])[*:1]]}$PEPTIDE1,CHEM1,1:R1-1:R1|PEPTIDE1,CHEM1,6:R3-1:R2$$$V2.0)	–	< 25
CC(C)C[C@@H]1NC(=O)[C@H]([C@@H](C)O)NC(=O)[C@H](CC(=O)O)NC(=O)[C@H](CO)NC(=O)[C@H](CCCNC(=N)N)N(C)C(=O)c2ccccc2CSC(C)(C)[C@@H](C(=O)N[C@@H](Cc2c[nH]c3ccccc23)C(=O)N[C@H](CCC(=O)O)C(=O)N[C@H](CCC(=O)O)C(N)=O)NC1=O [compound 108] (HELM PEPTIDE1{[meR].S.D.T.L.[Pen].W.[dE].[dE].[am]}|CHEM1{[O=C(c1ccccc1C[*:2])[*:1]]}$PEPTIDE1,CHEM1,1:R1-1:R1|PEPTIDE1,CHEM1,6:R3-1:R2$$$V2.0)	–	< 25
CC(C)C[C@@H]1NC(=O)[C@H]([C@@H](C)O)NC(=O)[C@H](CC(=O)O)NC(=O)[C@H](CO)NC(=O)[C@H](CCCNC(=N)N)N(C)C(=O)c2ccccc2CSC(C)(C)[C@@H](C(=O)N[C@@H](Cc2c[nH]c3ccccc23)C(=O)N[C@H](CCC(=O)O)C(=O)N[C@@H](Cc2ccccc2)C(N)=O)NC1=O [compound 101] (HELM PEPTIDE1{[meR].S.D.T.L.[Pen].W.[dE].F.[am]}|CHEM1{[O=C(c1ccccc1C[*:2])[*:1]]}$PEPTIDE1,CHEM1,1:R1-1:R1|PEPTIDE1,CHEM1,6:R3-1:R2$$$V2.0)	–	< 25
CC(C)C[C@@H]1NC(=O)[C@H]([C@@H](C)O)NC(=O)[C@H](CC(=O)O)NC(=O)[C@H](CO)NC(=O)[C@H](CCCNC(=N)N)N(C)C(=O)c2ccccc2CSC[C@@H](C(=O)N2Cc3ccccc3C[C@H]2C(=O)N[C@H](CCC(=O)O)C(=O)N[C@H](CCCCNC(=O)COCC(=O)NCCCC[C@@H](NC(=O)[C@@H](CCC(=O)O)NC(=O)[C@@H]2Cc3ccccc3CN2C(=O)[C@@H]2CSCc3ccccc3C(=O)N(C)[C@@H](CCCNC(=N)N)C(=O)N[C@@H](CO)C(=O)N[C@@H](CC(=O)O)C(=O)N[C@@H]([C@@H](C)O)C(=O)N[C@@H](CC(C)C)C(=O)N2)C(N)=O)C(N)=O)NC1=O [compound 184] (I: [NMeR]SDTLC[Tic][dE][dK]-NH2 / II: [NMeR]SDTLC[Tic][dE][dK]-NH2; linker I:9-II:9 via Diglycolyl; linker I:N-I:6, II:N-II:6 via X1)	< 25	–
CC(C)C[C@@H]1NC(=O)[C@H]([C@@H](C)O)NC(=O)[C@H](CC(=O)O)NC(=O)[C@H](CO)NC(=O)[C@H](CCCNC(=N)N)N(C)C(=O)c2ccccc2CSC[C@@H](C(=O)N2Cc3ccccc3C[C@H]2C(=O)N[C@H](CCC(=O)O)C(=O)N[C@H](CCCCNC(=O)COCC(=O)NCCCC[C@@H](NC(=O)[C@@H](CCC(=O)O)NC(=O)[C@@H]2Cc3ccccc3CN2C(=O)[C@@H]2CSCc3ccccc3C(=O)N(C)[C@@H](CCCNC(=N)N)C(=O)N[C@@H](CO)C(=O)N[C@@H](CC(=O)O)C(=O)N[C@@H]([C@@H](C)O)C(=O)N[C@@H](CC(C)C)C(=O)N2)C(=O)O)C(=O)O)NC1=O [compound 207] (I: [NMeR]SDTLC[Tic][dE][dK]-OH / II: [NMeR]SDTLC[Tic][dE][dK]-OH; linker I:9-II:9 via Diglycolyl; linker I:N-I:6, II:N-II:6 via X1)	< 25	–

— patent US20260217767A1, “NOVEL A4B7 THIOETHER PEPTIDE DIMER ANTAGONISTS” (Protagonist Therapeutics, Inc., priority 2014, published 2026)
